For data set [1] the following is noted: in vivo; cited from earlier work.
Data set [2] deals with patients with mild to moderate Alzheimer's Disease. To be noted: cited from earlier work; for improvement in memory in patients: mild to moderate Alzheimer's Disease.
In data set [3] the target is T1, ml receptors (muscarinic receptor subtypes) (Homo sapiens, UniProt P11229).
T1 sequence (P11229 1-460): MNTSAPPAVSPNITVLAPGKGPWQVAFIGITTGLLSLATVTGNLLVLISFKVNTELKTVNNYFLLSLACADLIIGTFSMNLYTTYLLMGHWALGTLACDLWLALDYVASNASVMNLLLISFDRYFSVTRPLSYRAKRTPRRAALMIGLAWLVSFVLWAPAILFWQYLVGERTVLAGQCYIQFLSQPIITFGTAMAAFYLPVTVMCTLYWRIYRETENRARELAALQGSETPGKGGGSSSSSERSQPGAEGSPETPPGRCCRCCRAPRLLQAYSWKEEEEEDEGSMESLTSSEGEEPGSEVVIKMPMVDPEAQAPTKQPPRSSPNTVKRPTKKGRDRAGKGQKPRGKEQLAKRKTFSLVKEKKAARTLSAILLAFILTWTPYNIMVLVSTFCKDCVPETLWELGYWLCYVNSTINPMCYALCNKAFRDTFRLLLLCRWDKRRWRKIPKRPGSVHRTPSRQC
Description: biochemical. It is filed as binding.

Data set [4] has as its target T2, M1 acetylcholine receptors (Homo sapiens, UniProt P11229).
T2 sequence (P11229 1-460): T1 sequence (P11229 1-460)
In words: Stimulation of phosphoinositide (PI) hydrolysis in CHO cells expressing M1 acetylcholine receptors. In kind it is cell-based. As to conditions: 1 h, read-out: % PI Hydrolysis ml receptors in CHO cells maximum %, carbachol = 100%.

[5] abbreviates: ml 3H QNB Binding in CHO cells Ki (μM), [3H]QNB 0.23 nM, 37 °C, 1 hour, CHO cells, ml.
Where [6] appears, read: read-out: ml 3H QNB Binding in CHO cells Ki, [3H]QNB 0.23 nM, 37 °C, 1 hour, CHO cells, ml.

The structures appear in SMILES notation. Like-named read-outs stand apart in the source and are kept apart here.

Consider 14 compounds from patent US5571819A, “Imidazopyridines as muscarinic agents” (priority 1994, dated 1996).

The Ki is the dissociation constant of the complex between target and ligand, obtained from inhibition or displacement.

Take `COC(=O)C1=CCCN(C)C1` [arecoline]: the half-life result in data set [1] is on record as “short half-life”. For the same compound, in data set [2], the “improvement in memory in patients” value was “memory improvement in patients with mild to moderate Alzheimer's Disease”.

In data set [3] (setting [5]), `Cn1cnc2c(O[C@H]3CN4CC[C@@H]3C4)ncnc21` (relative stereo) [Example 9, endo-6-(1Aza-bicyclo[2.2,1]hept-3-yloxy)-9-methylpurine] showed a Ki of 27 µM.

Consider `CCN1CCCC(O)(c2nc3c(Cl)nccc3n2Cc2ccccc2)C1` (stereo not drawn) [Example 15, 3-(1-Benzyl-4-chloro-1H-imidazo[4,5-c]pyridin-2-yl)-1-ethyl-piperidin-3-ol], for which the inhibitory constant (Ki) in data set [3] (read-out: ml 3H QNB Binding in CHO cells Ki) was 9.3 µM.

Take `Nc1c2c(nc3ccccc13)CCCC2` [tacrine]: the adverse side effects result in data set [2] (especially at the higher doses) is “adverse side effects especially at the higher doses where it is most effective”. Moreover, the “improvement in memory in patients” value in data set [2] is on record as “improvement in memory can be shown in patients with mild to moderate Alzheimer's Disease”.

`Cn1cnc2c(O[C@H]3CN4CC[C@@H]3C4)nccc21` (relative stereo) [Example 1, endo-4-(1-Aza-bicyclo[2.2.1]hept-3-yloxy)-1-methyl-1H-imidazo[4,5-c]pyridine] yielded an inhibition constant (Ki) in data set [3] (setting [5]) of 19.3 µM. Moreover, in data set [4], the Emax was determined as 21.7%.

For the compound `c1ccc(Cn2cnc3c(OC4CN5CCC4CC5)nccc32)cc1` (stereo not drawn) [Example 5, 3-(1-Benzyl-1H-imidazo[4,5-c]pyridin-4-yloxy)-1-aza-bicyclo[2.2.2]octane], in data set [3] (setting [5]), the Ki turned out to be 3.85 µM.

Compound `Cn1cnc2c(O[C@@H]3CN4CC[C@@H]3C4)ncnc21` (relative stereo) [Example 10, exo-6-(1Aza-bicyclo[2,2.1]hept-3-yloxy)-9-methylpurine] gave a Ki in data set [3] (setting [5]) of 17.1 µM.

Compound `Cn1cnc2c(O[C@H]3CN4CC[C@@H]3C4)nccc21` (single isomer, unassigned) [Example 3, (-)-endo-4-(1-Aza-bicyclo[2.2.1]hept-3-yloxy)-1-methyl-1H-imidazo[4,5-c]pyridine] had a Ki in data set [3] (setting [5]) of 14.2 µM. Moreover, in data set [4], the Emax is 26.2%.

For `c1ccc(Cn2cnc3c(OC4CN5CCC4CC5)nccc32)cc1` (single isomer, unassigned; (+)) [Example 6, (+)-3-(1-Benzyl-1H-imidazo[4,5-c]pyridin-4-yloxy)-1-aza-bicyclo[2.2.2]octane], the Ki in data set [3] (setting [5]) is 13.4 µM.

In the case of `c1ccc(Cn2cnc3c(OC4CN5CCC4CC5)nccc32)cc1` (single isomer, unassigned) [Example 7, (--)-3-(1-Benzyl-1H-imidazo[4,5-c]pyridin-4-yloxy)-1-aza-bicyclo[2.2.2]octane], the affinity in data set [3] (setting [5]) corresponds to a Ki of 17.6 µM.

`Cn1cnc2c(OCC3CN4CCC3CC4)nccc21` (stereo not drawn) [Example 8, 3-(1-Methyl-1H-imidazo[4,5,c]pyridin-4-yloxymethyl)-1-aza-bicyclo[2.2.2]octane] gave an inhibition constant Ki in data set [3] (setting [5]) of 2.65 µM.

Regarding `Cn1c(C2(O)CN3CCC2CC3)nc2ncccc21` (stereo not drawn) [Example 13, 3-(1-Methyl-1H-imidazo[4,5-b]pyridin-2-yl)-1-aza-bicyclo[2.2.2]octan-3-ol], the Ki in data set [3] (setting [6]) came out at 1.42 µM.

For the compound `Cn1cnc2c(O[C@@H]3CN4CC[C@@H]3C4)nccc21` (relative stereo) [Example 4, (exo)-4-(1-Aza-bicyclo[2,2,1]hept-3-yloxy)-1-methyl-1H-imidazo[4,5-c]pyridine], the inhibition constant (Ki) in data set [3] (setting [6]) worked out at 20.6 µM.

In turn, `OC1(c2nc3c(Cl)nccc3n2Cc2ccccc2)CN2CCC1CC2` (stereo not drawn) [Example 14, 3-(1-Benzyl-4-chloro-1H-imidazo[4,5-c]pyridin-2-yl)-1-azabicyclo[2.2.2]octan-3-ol] gave a Ki in data set [3] (setting [5]) of 1.65 µM.
